Test [1] concerns MDA-MB-231. In words: Anti-tumor effect in MDA-MB-231 subcutaneous xenograft model. Conditions: MDA-MB-231 xenograft in nude mice; methanesulfonate 100 mg/kg twice a day, one week, oral; day 8 vs day 1. It counts as in vivo, human. Here is the method:
(§1) Human tumor cell lines MDA-MB-231, MDA-MB-468, DU145, AsPC-1 (these four lines were purchased from ATCC), A549 (purchased from Dainippon Pharmaceutical Co., Ltd.), Lovo, SK-OV-3, H526, PC-3, DLD-1, HCT116 (these six lines were purchased from ATCC), SEKI, HMV-1 (these two lines were purchased from JCRB cell bank, National Institute of Biomedical Innovation), LOX (purchased from AntiCancer) and A375 (purchased from Dainippon Pharmaceutical Co., Ltd.) were cultured with RPMI1640 (containing 10% FBS) in a 5% CO2 gas incubator until they reached about 80% confluence. After culturing, cells from each line were recovered with trypsin-EDTA by conventional procedures. The cells were suspended in phosphate buffer to prepare a cell suspension of 1×10^8 cells/ml or 5×10^7 cells/ml. […] The major axis and minor axis of tumor were measured with a Digimatic Caliper (Mitsutoyo). Then, tumor volume, relative tumor volume and ΔT/C were calculated using the following formulas: Tumor volume (TV)=tumor major axis (mm)×tumor minor axis^2 (mm^2)/2 Relative tumor volume (RTV)=tumor volume on the measurement day/tumor volume on the starting day of administration ΔT/C=(tumor volume at day 8 of administration groups−tumor volume at day 1 of administration groups)/(tumor volume at day 8 of control group−tumor volume at day 1 of control group)×100 […]

The subject of test [2] is MDA-MB-468. Kind of test: Anti-tumor effect in MDA-MB-468 subcutaneous xenograft model. Conditions: MDA-MB-468 xenograft in nude mice; methanesulfonate 100 mg/kg twice a day, one week, oral; day 8 vs day 1. In kind it is in vivo, human. Here is the method: as §1
Test [3] has as its system DU145. Kind of test: Anti-tumor effect in DU145 subcutaneous xenograft model. It counts as in vivo, human. Conditions: DU145 xenograft in nude mice; methanesulfonate 100 mg/kg twice a day, one week, oral; day 8 vs day 1. Here is the method:
as §1

Test [4] has as its system H526. In words: Anti-tumor effect in H526 subcutaneous xenograft model. Conditions: H526 xenograft in nude mice; methanesulfonate 100 mg/kg twice a day, one week, oral; day 8 vs day 1. It counts as in vivo, human. The protocol:
as §1

The test system of test [5] is PC-3. Kind of test: Anti-tumor effect in PC-3 subcutaneous xenograft model. In kind it is in vivo, human. Conditions: PC-3 xenograft in nude mice; methanesulfonate 100 mg/kg twice a day, one week, oral; day 8 vs day 1. Here is the method: as §1
Test [6] relates to DLD-1. Kind of test: Anti-tumor effect in DLD-1 subcutaneous xenograft model. In kind it is in vivo, human. Conditions: DLD-1 xenograft in nude mice; methanesulfonate 100 mg/kg twice a day, one week, oral; day 8 vs day 1. The protocol:
as §1

The test system of test [7] is HCT116. In words: Anti-tumor effect in HCT116 subcutaneous xenograft model. In kind it is in vivo, human. Conditions: HCT116 xenograft in nude mice; methanesulfonate 100 mg/kg twice a day, one week, oral; day 8 vs day 1. The protocol: as §1
Test [8] deals with SEKI. Kind of test: Anti-tumor effect in SEKI subcutaneous xenograft model. In kind it is in vivo, human. Conditions: SEKI xenograft in nude mice; methanesulfonate 100 mg/kg twice a day, one week, oral; day 8 vs day 1. Here is the method:
as §1

The subject of test [9] is HMV-1. Kind of test: Anti-tumor effect in HMV-1 subcutaneous xenograft model. In kind it is in vivo, human. Conditions: HMV-1 xenograft in nude mice; methanesulfonate 100 mg/kg twice a day, one week, oral; day 8 vs day 1. Here is the method: as §1
Test [10] relates to LOX. In words: Anti-tumor effect in LOX subcutaneous xenograft model. It counts as in vivo, human. Conditions: LOX xenograft in nude mice; methanesulfonate 100 mg/kg twice a day, one week, oral; day 8 vs day 1. The protocol:
as §1

Test [11] relates to A375. In words: Anti-tumor effect in A375 subcutaneous xenograft model. Conditions: A375 xenograft in nude mice; methanesulfonate 100 mg/kg twice a day, one week, oral; day 8 vs day 1. In kind it is in vivo, human. Here is the method: as §1
The subject of test [12] is human non-small cell lung cancer cell line (A549). Kind of test: Combined application of VEGF receptor kinase inhibitor and EGF inhibitor in A549 subcutaneous xenograft model. Conditions: nude mice, 4 weeks, control 9.94 ± 0.77. It counts as in vivo. Here is the method:
Combined Application of VEGF Receptor Kinase Inhibitor and EGF Inhibitor in Human Non-Small Cell Lung Cancer Cell line (A549) Subcutaneous Xenograft Model (In Vivo) […] Then, cells were recovered with trypsin-EDTA. A cell suspension (5×10^7 cells/ml) was prepared with phosphate buffer containing 50% matrigel. The resultant cell suspension was subcutaneously transplanted into the flank of nude (0.1 ml/mouse). From day 10 of transplantation, 4-(3-chloro-4-(cyclopropylaminocarbonyl)aminophenoxy)-7-methoxy-6-quinolinecarboxamide (a methanesulfonate) and erlotinib were orally administered independently or in combination. With respect to 4-(3-chloro-4-(cyclopropylaminocarbonyl)aminophenoxy)-7-methoxy-6-quinolinecarboxamide (a methanesulfonate), it was administered at 3 mg/kg, 10 mg/kg or 30 mg/kg; once a day; for 4 weeks. With respect to erlotinib, it was administered at 50 mg/kg, once a day, for 4 weeks. The major axis and minor axis of tumor were measured with a Digimatic Caliper (Mitsutoyo). Then, tumor volume and relative tumor volume were calculated using the following formulas: […]

Test [13] deals with human non-small cell lung cancer cell strain (PC-9). In words: Combined application of VEGF receptor kinase inhibitor and EGF inhibitor in PC-9 subcutaneous xenograft model. It counts as in vivo. Conditions: PC-9 xenograft, nude mice, 4 weeks, control 7.51 ± 1.69. Here is the method: Combined Application of VEGF Receptor Kinase Inhibitor and EGF Inhibitor in Human Non-Small Cell Lung Cancer Cell Strain (PC-9) Subcutaneous Xenograft Model (In Vivo) […] Then, cells were recovered with trypsin-EDTA. A cell suspension (5×10^7 cells/nil) was prepared with phosphate buffer. The resultant cell suspension was subcutaneously transplanted into the flank of nude mice (0.1 ml/mouse). […] The major axis and minor axis of tumor were measured with a Digimatic Caliper (Mitsutoyo). Then, tumor volume and relative tumor volume were calculated using the following formulas: […]

Where [14] appears, read: Compound A 10 mg/kg oral once a day.
Setting [15] is: Erlotinib 50 mg/kg oral once a day.

In the case of `COc1cc2nccc(Oc3ccc(NC(=O)NC4CC4)c(Cl)c3)c2cc1C(N)=O` [Compound A, 4-(3-chloro-4-(cyclopropylaminocarbonyl)aminophenoxy)-7-methoxy-6-quinolinecarboxamide], the ΔT/C in test [1] is reported as under −30%; in test [2], under −30%; in [3], under −30%; in test [4], over 10%; in test [5] it was over 10%; in [6], over 10%. The ΔT/C in test [7], in [8], in test [9], in test [10] and in [11] was over 10% in each case. In addition, the “Relative Tumor Volume at Day 29 Mean ± Standard Deviation” value is given as 4.34 ± 0.80 in test [12] (Compound A 3 mg/kg oral once a day), 2.65 ± 0.45 in [12] (setting [14]), 1.65 ± 0.31 in test [12] (Compound A 30 mg/kg oral once a day) and 2.24 ± 0.54 in [13] (setting [14]).
Consider `C#Cc1cccc(Nc2ncnc3cc(OCCOC)c(OCCOC)cc23)c1` [Erlotinib, 4-(3-ethynylphenylamino)-6,7-bis(2-methoxyethoxy)-quinazoline, reference compound], for which the “Relative Tumor Volume at Day 29 Mean ± Standard Deviation” value was 5.71 ± 1.84 in test [12] (setting [15]) and 3.30 ± 0.19 in test [13] (setting [15]).

Source of the values: patent US9006240B2, “Method for assay on the effect of vascularization inhibitor” (Eisai R&D Management Co., Ltd., priority 2005, dated 2015).
